Assay results published in patent US10414759B2, “Phenylthiazoles and uses thereof” (Purdue Research Foundation, priority 2017, dated 2019).
≈ marks a conversion by molar mass, not a printed value. Where two headings read alike, the source gives them in different places.

Columns and labels:
[1] = Metabolic stability in human liver microsomes; type: in vitro ADME; details: pH 7.4, human liver microsomes, with NADPH, read-out: NADPH-dependent CLint
Protocol: The tested compounds were incubated in duplicate with human liver microsomes at 37° C. The reaction contained microsomal protein in 100 mM potassium phosphate, 2 mM NADPH, 3 mM MgCl2, pH 7.4. A control was run for each test agent omitting NADPH to detect NADPH-free degradation. At 0, 10, 20, 40, and 60 minutes, an aliquot was removed from each experimental and control reaction and mixed with an equal volume of ice-cold Stop Solution (methanol containing haloperidol, diclofenac, or other internal standard). Stopped reactions are incubated at least ten minutes at −20° C., and an additional volume of water was added. The samples were centrifuged to remove precipitated protein, and the supernatants were analyzed by LC/MS/MS to quantitate the remaining parent. Data are converted to % remaining by dividing by the time zero concentration value. Data are fit to a first-order decay model to determine half-life. Intrinsic clearance is calculated from the half-life and the protein concentrations: CLint=ln(2)/(T1/2 [microsomal protein]).

[2] = system: MRSA (2658 RCMB); test: MIC against MRSA (2658 RCMB), broth dilution; type: cell-based, Staphylococcus aureus; details: for MIC: Staphylococcus aureus
Protocol: Bacteria were cultured in cation-adjusted Mueller Hinton broth in a 96-well plate. Compounds, using triplicate samples, were added to the plate and serially diluted. […] Plates were visually inspected and the MIC was categorized as the concentration at which no visible growth of bacteria was observed. The average of triplicate MIC determinations is reported.
A bacterial solution equivalent to 0.5 McFarland standard was prepared and diluted in cation-adjusted Mueller-Hinton broth (CAMHB) to achieve a bacterial concentration of about 5×10^5 CFU/mL and seeded in 96-well plates. Enterococcus faecium was diluted in brain heart infusion broth. Enterococcus faecalis, Streptococcus pneumonia and Listeria monocytogenes were diluted in tryptone soya broth (TSB).

[3] = Table 1, MRSA (2658 RCMB), read-out: MIC ± SD
[4] = Table 7, initial screening, MRSA (2658 RCMB), read-out: minimum inhibitory concentration (MIC)
[5] = Table 7, initial screening, MRSA (2658 RCMB)

SMILES	MIC [2, 3] [µg/mL]	melting point	MIC [2, 4] [µg/mL]	further results
CC(=O)CC(c1ccccc1)c1c(O)c2ccccc2oc1=O (stereo not drawn) [Warfarin, warfarin, reference compound]	–	–	–	microsomal CLint [1]: 0.3 µL/min/mg
Cc1nc(-c2ccc(C3=CCC(C)C3)cc2)sc1-c1ccnc(N)n1 (stereo not drawn) [Compound 28, 4-{4-Methyl-2-[4-(4-methylcyclopent-1-en-1-yl)phenyl]thiazol-5-yl}pyrimidin-2-amine]	3.8 ± 0.4 (≈ 10.9 µM)	141 °C	–	–
CCCCc1ccc(-c2nc(C)c(C(=O)/C=C/N(C)C)s2)cc1 [Compound 4, (E)-1-[2-(4-Butylphenyl)-4-methylthiazol-5-yl]-3-(dimethyl-amino)prop-2-en-1-one]	> 25	105.4 °C	–	–
Cc1nc(-c2ccc(C3=CCCCCCC3)cc2)sc1-c1ccnc(N)n1 [Compound 31, 4-{2-[4-(Cyclooct-1-en-1-yl)phenyl]-4-methylthiazol-5-yl}pyrimidin-2-amine]	5.6 ± 0.1 (≈ 14.9 µM)	188 °C	–	–
CCCCc1ccc(-c2nc(C)c(-c3ccnc(NC(N)=S)n3)s2)cc1 [Compound 12, 1-{4-[2-(4-Butylphenyl)-4-methylthiazol-5-yl]pyrimidin-2-yl}thiourea]	–	212 °C (dec.)	–	MIC ([2]; MRSA, read-out: MIC ± SD): > 25 µg/mL; antibacterial (anti-MRSA) activity, in words ([2]; Table 1): complete abolishment of the anti-MRSA activity
Cc1nc(-c2ccc(C(C)(C)C)cc2)sc1-c1ccnc(NN)n1 [Compound 55, 2-(4-(tert-Butyl)phenyl)-5-(2-hydrazinylpyrimidin-4-yl)-4-methylthiazole]	–	–	1.56 (≈ 4.6 µM)	–
Cc1nc(-c2ccc(C(C)(C)C)cc2)sc1-c1ccnc(N=C(N(C)C)N(C)C)n1 [Compound 59, N-2-(4-(2-(4-(tert-Butyl)phenyl)-4-methylthiazol-5-yl)pyrimidin-2-yl)-1,1,3,3-tetramethylguanidine]	–	–	–	minimum inhibitory concentration (MIC) [2, 5]: >50 µg/mL
Cc1nc(-c2ccc(C(C)(C)C)cc2)sc1-c1ccnc(N2CCCC2)n1 [Compound 42]	–	–	–	minimum inhibitory concentration (MIC) [2, 5]: >50 µg/mL
CCCCc1ccc(-c2nc(C)c(-c3ccnc(NC(=N)N)n3)s2)cc1 [Compound 18, 2-(4-Butylphenyl)-5-(2-guanidinylpyrimidin-4-yl)-4-methylthiazole]	1.56 (≈ 4.26 µM)	–	–	MIC ± SD ([2]; Table 1, MRSA (2658 RCMB)): 1.56 ± 0.10 µg/mL (≈ 4.26 µM)
CCCCc1ccc(-c2nc(C)c(-c3ccnc(-c4cccnc4)n3)s2)cc1 [Compound 13, 2-(4-Butylphenyl)-4-methyl-5-[2-(38yridine-3-yl)pyrimidin-4-yl]thiazole]	–	–	–	antibacterial (anti-MRSA) activity, in words ([2]; Table 1): exhibited no antibacterial activity; MIC ± SD ([2]; Table 1, MRSA (2658 RCMB)): 17.2 ± 0.4 µg/mL (≈ 44.5 µM)
Cc1nc(-c2ccc(/C=C/C3CCCCC3)cc2)sc1-c1ccnc(N)n1 [Compound 35, (E)-4-{2-[4-(2-Cyclohexylvinyl)phenyl]-4-methylthiazol-5-yl}pyrimidin-2-amine]	3.12 (≈ 8.29 µM)	189 °C	–	–
Cc1nc(-c2ccc(C=C3CCCCC3)cc2)sc1-c1ccnc(N)n1 [Compound 33, 4-{2-[4-(Cyclohexylidenemethyl)phenyl]-4-methylthiazol-5-yl}pyrimidin-2-amine]	–	165 °C	–	MIC ([2]; MRSA, read-out: MIC ± SD): 1.56 µg/mL (≈ 4.3 µM)
CNc1nccc(-c2sc(-c3ccc(C(C)(C)C)cc3)nc2C)n1 [Compound 41, 4-(2-(4-(tert-Butyl)phenyl)-4-methylthiazol-5-yl)-N-methylpyrimidin-2-amine]	–	–	25 (≈ 73.9 µM)	–
CCCCc1ccc(-c2nc(C)c(-c3ccnc(N=C(N(C)C)N(C)C)n3)s2)cc1 [Compound 19, 2-{4-[42-(4-Butylphenyl)-4-methylthiazol-5-yl]pyrimidin-2-yl}-1,1,3,3-tetramethyl guanidine]	–	–	–	antibacterial (anti-MRSA) activity, in words ([2]; Table 1): revealed no antibacterial efficacy; MIC ± SD ([2]; Table 1, MRSA (2658 RCMB)): >25 µg/mL
Cc1nc(-c2ccc(C(C)(C)C)cc2)sc1-c1ccnc(-c2cccnc2)n1 [Compound 43, 2-(4-(tert-Butyl)phenyl)-4-methyl-5-(2-(pyridin-3-yl)pyrimidin-4-yl)thiazole]	–	–	> 50	–
Cc1nc(-c2ccc(C(C)(C)C)cc2)sc1-c1ccnc(NC(=N)N2CCCC2)n1 [Compound 60, N-(4-(2-(4-(tert-Butyl)phenyl)-4-methylthiazol-5-yl)pyrimidin-2-yl) pyrrolidine-1-carboximidamide]	–	–	50 (≈ 119 µM)	–

The next lines start with results.

MIC [2, 3] [µg/mL]	melting point	MIC [2, 4] [µg/mL]	SMILES	further results
> 25	–	–	Cc1nc(-c2ccc(I)cc2)sc1-c1ccnc(N)n1 [Compound 23, 4-[2-(4-Iodophenyl)-4-methylthiazol-5-yl]pyrimidin-2-amine]	–
18.7 ± 2.3 (≈ 53.5 µM)	118 °C	–	CCCCc1ccc(-c2nc(C)c(-c3ccnc(NC#N)n3)s2)cc1 [Compound 10, N-{4-[2-(4-Butylphenyl)-4-methylthiazol-5-yl]pyrimidin-2-yl}cyanamide]	antibacterial (anti-MRSA) activity, in words ([2]; Table 1): dramatically decreased the antibacterial activity
–	–	1.56 (≈ 4.1 µM)	CNC(=N)Nc1nccc(-c2sc(-c3ccc(C(C)(C)C)cc3)nc2C)n1 [Compound 57, 1-(4-(2-(4-(tert-Butyl)phenyl)-4-methylthiazol-5-yl)pyrimidin-2-yl)-3-methylguanidine]	–
–	–	1.56 (≈ 4.26 µM)	Cc1nc(-c2ccc(C(C)(C)C)cc2)sc1-c1ccnc(NC(=N)N)n1 [Compound 56, 1-(4-(2-(4-(tert-Butyl)phenyl)-4-methylthiazol-5-yl)pyrimidin-2-yl)guanidine]	–
> 25	227 °C (dec.)	–	CCCCc1ccc(-c2nc(C)c(-c3ccnc(NC)n3)s2)cc1 [Compound 9, 4-[2-(4-Butylphenyl)-4-methylthiazol-5-yl]-N-methylpyrimidin-2-amine]	antibacterial (anti-MRSA) activity, in words ([2]; Table 1): dramatically decreased the antibacterial activity
1.17 ± 0.19 (≈ 3.36 µM)	143 °C	–	Cc1nc(-c2ccc(C=C3CCCC3)cc2)sc1-c1ccnc(N)n1 [Compound 32, 4-{2-[4-(Cyclopentylidenemethyl)phenyl]-4-methylthiazol-5-yl}pyrimidin-2-amine]	–
–	–	> 50	Cc1nc(-c2ccc(C(C)(C)C)cc2)sc1-c1ccnc(N2CCC2)n1 [Compound 51, 5-(2-(Azetidin-1-yl)pyrimidin-4-yl)-2-(4-(tert-butyl)phenyl)-4-methylthiazole]	–
–	–	> 50	Cc1nc(-c2ccc(C(C)(C)C)cc2)sc1-c1ccnc(N(C)C)n1 [Compound 50, 4-(2-(4-(tert-Butyl)phenyl)-4-methylthiazol-5-yl)-N,N-dimethylpyrimidin-2-amine]	–
> 25	153.7 °C	–	CCCCc1ccc(-c2nc(C)c(-c3ccnc(N4CCCC4)n3)s2)cc1 [Compound 15, 2-(4-Butylphenyl)-4-methyl-5-(2-(pyrrolidin-1-yl)pyrimidin-4-yl)thiazole]	antibacterial (anti-MRSA) activity, in words ([2]; Table 1): lacks any antibacterial activity
3.12 (≈ 8.61 µM)	164 °C	–	Cc1nc(-c2ccc(C3=CCCCCC3)cc2)sc1-c1ccnc(N)n1 [Compound 30, 4-{2-[4-(Cyclohept-1-en-1-yl)phenyl]-4-methylthiazol-5-yl}pyrimidin-2-amine]	–
> 25	163.7 °C	–	CCCCc1ccc(-c2nc(C)c(-c3ccnc(-n4cccn4)n3)s2)cc1 [Compound 14, 2-(4-Butylphenyl)-5-[2-(1H-pyrazol-1-yl)pyrimidin-4-yl]-4-methylthiazole]	antibacterial (anti-MRSA) activity, in words ([2]; Table 1): exhibited no antibacterial activity
–	–	6.25 (≈ 19.3 µM)	Cc1nc(-c2ccc(C(C)(C)C)cc2)sc1-c1ccnc(N)n1 [Compound 40, 4-(2-(4-(tert-Butyl)phenyl)-4-methylthiazol-5-yl)pyrimidin-2-amine]	–
–	–	25 (≈ 63.4 µM)	Cc1nc(-c2ccc(C(C)(C)C)cc2)sc1-c1ccnc(N2CCOCC2)n1 [Compound 52, 4-(4-(2-(4-(tert-Butyl)phenyl)-4-methylthiazol-5-yl)pyrimidin-2-yl) morpholine]	–
3.12 (≈ 8.61 µM)	180.7 °C	–	Cc1nc(-c2ccc(/C=C/C3CCCC3)cc2)sc1-c1ccnc(N)n1 [Compound 34, (E)-4-{2-[4-(2-Cyclopentylvinyl)phenyl]-4-methylthiazol-5-yl}pyrimidin-2-amine]	–
–	–	3.12 (≈ 6.94 µM)	Cc1nc(-c2ccc(C(C)(C)C)cc2)sc1-c1ccnc(NC(=N)N2CCN(C)CC2)n1 [Compound 62, N-(4-(2-(4-(tert-Butyl)phenyl)-4-methylthiazol-5-yl)pyrimidin-2-yl)-4-methylpiperazine-1-carboximidamide]	–
> 25	–	–	CCCCc1ccc(-c2nc(C)c(-c3ccn4ncnc4n3)s2)cc1 [Compound 16, 5-([1,2,4]Triazolo[1,5-a]pyrimidin-5-yl)-2-(4-butylphenyl)-4-methylthiazole]	–
–	–	6.25 (≈ 16.4 µM)	Cc1nc(-c2ccc(C(C)(C)C)cc2)sc1-c1ccnc(N2CC(O)C2)n1 [Compound 53, 1-(4-(2-(4-(tert-Butyl)phenyl)-4-methylthiazol-5-yl)pyrimidin-2-yl)azetidin-3-ol]	–
